Values of other authors, collected in patent US20040162333A1, “Rapid absorption selective 5-HT agonist formulations” (priority 2003, published 2004).

Conditions: commercially available oral triptans
For `CN(C)CCc1c[nH]c2ccc(CS(=O)(=O)N3CCCC3)cc12` [Almotriptan (Axert), Almotriptan], the “Time to Peak Effect (Tmax)” value is listed as 1 to 3 h. In the case of `CN[C@@H]1CCc2[nH]c3ccc(C(N)=O)cc3c2C1` [Frovatriptan (Frova), Frovatriptan], the “Time to Peak Effect (Tmax)” value is given as 2 to 4 h. For `CNS(=O)(=O)CCc1ccc2[nH]cc(C3CCN(C)CC3)c2c1` [Naratriptan (Amerge), Naratriptan], the “Time to Peak Effect (Tmax)” value is given as 2 to 3 h. For `CN(C)CCc1c[nH]c2ccc(Cn3cncn3)cc12` [Rizatriptan (Maxalt), Rizatriptan], the “Time to Peak Effect (Tmax)” value is given as 1 to 1.5 h. For `CNS(=O)(=O)Cc1ccc2[nH]cc(CCN(C)C)c2c1` [Sumatriptan], the “Time to Peak Effect (Tmax)” value is listed as 2.5 h. In the case of `CN(C)CCc1c[nH]c2ccc(C[C@H]3COC(=O)N3)cc12` [Zolmitriptan (Zomig), Zolmitriptan], the “Time to Peak Effect (Tmax)” value is listed as 2 h.
